Results on 2 compounds are retold here after US20200087732A1, “IDENTIFICATION OF DRUGS TARGETING NON-GENETIC DRUG TOLERANCE PROGRAMS IN CANCER” (ETH ZURICH, priority 2016, published 2020).

Type in all cases: cell-based
In experiment [1] the test system is SOX2. In words: SOX2 levels by Western blot after MAPKi treatment. Conditions: A375-P cells, indicated times. Here is the method:
(A) A375-P cells were treated with PLX4720 (BRAFi) or DMSO for 6 h, RNA was isolated and RNA-Seq was performed. […] Differentially expressed genes (DEGs) selected for pathway analysis are represented by red and blue dots depending on the direction of the transcriptional change (red genes are induced upon PLX4720, blue genes are repressed upon PLX4720). (B) Bar graphs showing the five top pathways with significant enrichment of the analyzed DEGs. Longer bars indicate stronger significance. (C) Top deregulated genes upon treatment with PLX4720 (left column). Top genes induced and repressed by PLX4720 are shown in separate lists. (D) Indicated cell lines were treated with 1 μM PLX4720 or 0.01% DMSO (0 h) for the indicated times and the expressional changes of selected genes associated with stemness/EMT were confirmed by qPCR. […] Data shown represent mean of independent biological triplicates ±SEM. (E) Western blot analysis of the same experiment as shown in (D). As key player in the stemness signature, SOX2 levels were assessed. P-ERK1/2 levels served as positive treatment controls. Total ERK1/2 levels served as loading control. (F) A375-P cells were treated with 1 μM PLX4720, 0.5 μM AZD6244 (MEK1/2 inhibitor) or 0.01% DMSO for the indicated times and SOX2 levels were assessed by Western blot analysis. […] (G) A375-P cells were treated with 1 μM PLX4720 (BRAFi), 0.5 μM AZD6244 (MEKi), a combination of both drugs or 0.01% DMSO for the indicated times and SOX2 levels were assessed by Western blot analysis. […] (H) A375-P cells were treated with 1 μM PLX4720 (BRAFi), 0.5 μM AZD6244 (MEKi), a combination of both drugs or 0.01% DMSO for the 24 h and the expressional changes of selected genes associated with stemness/EMT were confirmed by qPCR. […] For all Western blots, individual time points were assessed in at least two independent experiments. Representative data is shown.
Background: Immunoblotting shows a protein as a band on a membrane.

Experiment [2] has as its system genes associated with stemness/EMT. In words: qPCR of selected genes associated with stemness/EMT in A375-P cells. Conditions: FIG. 1H, 1 μM PLX4720, 0.5 μM AZD6244 or combination of both, 24 h.
Description: (A) A375-P cells were treated with PLX4720 (BRAFi) or DMSO for 6 h, RNA was isolated and RNA-Seq was performed. […] (B) Bar graphs showing the five top pathways with significant enrichment of the analyzed DEGs. Longer bars indicate stronger significance. […] Data shown represent mean of independent biological triplicates ±SEM. (E) Western blot analysis of the same experiment as shown in (D). As key player in the stemness signature, SOX2 levels were assessed. P-ERK1/2 levels served as positive treatment controls. Total ERK1/2 levels served as loading control. (F) A375-P cells were treated with 1 μM PLX4720, 0.5 μM AZD6244 (MEK1/2 inhibitor) or 0.01% DMSO for the indicated times and SOX2 levels were assessed by Western blot analysis. […] (G) A375-P cells were treated with 1 μM PLX4720 (BRAFi), 0.5 μM AZD6244 (MEKi), a combination of both drugs or 0.01% DMSO for the indicated times and SOX2 levels were assessed by Western blot analysis. […] For all Western blots, individual time points were assessed in at least two independent experiments. Representative data is shown.
The subject of experiment [3] is S6K and BAD. Nature of the experiment: Survival signaling by Western blot in A375-P/pTRIPZ cells. To be noted: FIG. 2G, PLX4720 for 48 h. Here is the method: (§1) (A) A375-P cells were transfected with 100 nM siRNA targeting SOX2 or a negative control siRNA. Cells were then treated with PLX4720 (BRAFi) or DMSO for 48 h. 2 h before harvesting, cells were pulsed with 3 uM EdU to label cycling cells. EdU-positive cells were detected using flow cytometry. […] Representative data is shown. (B) Quantification of experiment (A). For each condition, percentage of cycling cells upon siRNA knockdown of SOX2 was normalized to the negative control siRNA. Data shown represent mean of independent biological triplicates ±SEM. (C) A375-P cells stably transduced with pTRIPZ-SOX2 vector were treated with the indicated concentrations of doxycycline for three days or with 1 μM PLX4720 (PLX) for 24 h. SOX2 overexpression was confirmed by Western blot analysis. Lamin A served as loading control. Individual concentrations were assessed in at least two independent experiments. Representative results are shown. (D) A375-P/pTRIPZ-control or -SOX2 cells were pre-treated with 0 ng/ml (negative control) or with 50 ng/ml doxycycline for 24 h, and subsequently with DMSO or PLX4720 for an additional 48 h. 2 h before harvesting, cells were pulsed with 3 uM EdU to label cycling cells. EdU-positive cells were detected using flow cytometry. […] Cell viability was assessed by PrestoBlue assay and IC50 values were calculated. […] Survival signaling was assessed by Western blot. […]

Experiment [4] relates to A375-P/pTRIPZ-control or -SOX2 cells. Nature of the experiment: Cell viability by PrestoBlue assay. Conditions: FIG. 2E-F; pTRIPZ-SOX2 cells with 50 ng/ml doxycycline versus 0 ng/ml; serial dilutions of PLX4720 for four days. Here is the method: as §1
[5] abbreviates: FIG. 1F, 1 μM PLX4720 or 0.5 μM AZD6244.
The mark [6] stands for this setting: FIG. 1G, 1 μM PLX4720, 0.5 μM AZD6244 or combination of both.

In the case of `Cn1cnc2c(F)c(Nc3ccc(Br)cc3Cl)c(C(=O)NOCCO)cc21` [AZD6244], the “SOX2 levels (Western blot)” value in experiment [1] (setting [5]) was “induce similar SOX2 levels”; in experiment [1] (setting [6]) it was “comparable effects on SOX2 levels”. Besides, the “transcript levels of selected stemness/EMT genes (qPCR)” value in experiment [2] is listed as “comparable effects on transcript levels”.
In the case of `CCCS(=O)(=O)Nc1ccc(F)c(C(=O)c2c[nH]c3ncc(Cl)cc23)c1F` [PLX4720], the figures for the “SOX2 levels (Western blot)” value in experiment [1] (setting [5]) and in experiment [1] (setting [6]) were “induce similar SOX2 levels” and “comparable effects on SOX2 levels”, respectively. The “survival signaling via S6K and BAD (Western blot)” value in experiment [3] is “repressed”. Also, the “transcript levels of selected stemness/EMT genes (qPCR)” value in experiment [2] was “comparable effects on transcript levels”. Further, the “drug sensitivity (survival curve, cell viability)” value in experiment [4] was “decreased drug sensitivity when SOX2 is overexpressed”.
